How the values were obtained:
ISC-enriched organoids [1] = assay: Primary screen, 384-well 2.5-D organoid differentiation (ENR+CD, 6 days): basal lysozyme secretion (LYZ.NS); format: cell-based, murine; conditions: for Dose.FC.LYZ.NS: FC vs plate median; for Z.LYZ.NS: standard z score of FC; for SSMD.LYZ.NS: strictly standardized mean difference; for Dose.FC.LYZ.NS (log 2 fold change): vs plate median
Source text: (§1) High-throughput screening.

ISC-enriched organoids [2] = assay: Primary screen, 384-well 2.5-D organoid differentiation (ENR+CD, 6 days): carbachol-induced lysozyme secretion (LYZ.S); format: cell-based, murine; conditions: for Dose.FC.LYZ.S: FC vs plate median; for Z.LYZ.S: standard z score; for SSMD.LYZ.S: strictly standardized mean difference; for Dose.FC.LYZ.S (log 2 fold change): vs plate median
Source text: as §1

ISC-enriched organoids [3] = assay: Primary screen, 384-well 2.5-D organoid differentiation (ENR+CD, 6 days, Target Selective Inhibitor Library, vs whole-plate median): ATP (CellTiter-Glo 3D, CTG); conditions: for Dose.FC.CTG: FC vs plate median; for Z.CTG: standard z score of FC; for SSMD.CTG: strictly standardized mean difference; for Dose.FC.CTG (log 2 fold change): vs plate median
[4] = primary screen, 1st of the 4 dose lines of the treatment (dose not given)
[5] = primary screen, 2nd of the 4 dose lines of the treatment (dose not given)
[6] = primary screen, 3rd of the 4 dose lines of the treatment (dose not given)
[7] = primary screen, 4th of the 4 dose lines of the treatment (dose not given)

With OC[C@H]1O[C@@H](c2ccc(Cl)c(Cc3ccc(O[C@H]4CCOC4)cc3)c2)[C@H](O)[C@@H](O)[C@@H]1O [Empagliflozin (BI 10773)] as the compound, how does the Dose.FC.LYZ.NS (ISC-enriched organoids [1]; Dose 0.08 uM, ENR+CD, 6 days) read?
Its Dose.FC.LYZ.NS is −0.006 log 2 fold change.

What about the Z.LYZ.NS (ISC-enriched organoids [1]; Dose 0.08 uM) of the same compound?
Its Z.LYZ.NS is −0.052.

And the Dose.FC.LYZ.NS (ISC-enriched organoids [1]; Dose 0.40 uM, ENR+CD, 6 days)?
The Dose.FC.LYZ.NS was −0.034 log 2 fold change.

What about the Z.LYZ.NS (ISC-enriched organoids [1]; Dose 0.40 uM) of the same compound?
The Z.LYZ.NS was −0.294.

What about the Dose.FC.LYZ.NS (ISC-enriched organoids [1]; Dose 2.00 uM, ENR+CD, 6 days) of the same compound?
Its Dose.FC.LYZ.NS is −0.009 log 2 fold change.

And the Z.LYZ.NS (ISC-enriched organoids [1]; Dose 2.00 uM)?
The Z.LYZ.NS was −0.081.

And the Dose.FC.LYZ.NS (ISC-enriched organoids [1]; Dose 10.00 uM, ENR+CD, 6 days)?
The Dose.FC.LYZ.NS was 0.017 log 2 fold change.

And the Z.LYZ.NS (ISC-enriched organoids [1]; Dose 10.00 uM)?
Its Z.LYZ.NS is 0.144.

What about the Dose.FC.LYZ.S (ISC-enriched organoids [2]; Dose 0.08 uM, ENR+CD, 6 days) of the same compound?
Its Dose.FC.LYZ.S is −0.051 log 2 fold change.

What about the Dose.FC.LYZ.S (ISC-enriched organoids [2]; Dose 0.40 uM, ENR+CD, 6 days) of the same compound?
The Dose.FC.LYZ.S was −0.055 log 2 fold change.

And the Dose.FC.LYZ.S (ISC-enriched organoids [2]; Dose 2.00 uM, ENR+CD, 6 days)?
Its Dose.FC.LYZ.S is −0.103 log 2 fold change.

And the Dose.FC.LYZ.S (ISC-enriched organoids [2]; Dose 10.00 uM, ENR+CD, 6 days)?
The Dose.FC.LYZ.S was −0.022 log 2 fold change.

And the Dose.FC.CTG (ISC-enriched organoids [3]; Dose 0.08 uM, ENR+CD, 6 days)?
Its Dose.FC.CTG is −0.296 log 2 fold change.

What about the Z.CTG (ISC-enriched organoids [3]; Dose 0.08 uM) of the same compound?
Its Z.CTG is −0.707.

And the Dose.FC.CTG (ISC-enriched organoids [3]; Dose 0.40 uM, ENR+CD, 6 days)?
Its Dose.FC.CTG is −0.075 log 2 fold change.

And the Z.CTG (ISC-enriched organoids [3]; Dose 0.40 uM)?
The Z.CTG was −0.178.

And the Dose.FC.CTG (ISC-enriched organoids [3]; Dose 2.00 uM, ENR+CD, 6 days)?
Its Dose.FC.CTG is −0.192 log 2 fold change.

And the Z.CTG (ISC-enriched organoids [3]; Dose 2.00 uM)?
Its Z.CTG is −0.458.

What about the Dose.FC.CTG (ISC-enriched organoids [3]; Dose 10.00 uM, ENR+CD, 6 days) of the same compound?
Its Dose.FC.CTG is −0.134 log 2 fold change.

What about the Z.CTG (ISC-enriched organoids [3]; Dose 10.00 uM) of the same compound?
Its Z.CTG is −0.320.

Which results are given for Cl.Cl.NC1(c2ccc(-c3nc4ccn5c(=O)[nH]nc5c4cc3-c3ccccc3)cc2)CCC1 [MK-2206 2HCl]?
Dose.FC.LYZ.NS (ISC-enriched organoids [1]; Dose 0.08 uM, primary screen): 0.024 log 2 fold change; Z.LYZ.NS (ISC-enriched organoids [1]; Dose 0.08 uM): 0.205; Dose.FC.LYZ.NS (ISC-enriched organoids [1]; Dose 0.40 uM, primary screen): −0.063 log 2 fold change; Z.LYZ.NS (ISC-enriched organoids [1]; Dose 0.40 uM): −0.550; Dose.FC.LYZ.NS (ISC-enriched organoids [1]; Dose 2.00 uM, primary screen): −0.182 log 2 fold change; Z.LYZ.NS (ISC-enriched organoids [1]; Dose 2.00 uM): −1.587; Dose.FC.LYZ.NS (ISC-enriched organoids [1]; Dose 10.00 uM, primary screen): −0.236 log 2 fold change; Z.LYZ.NS (ISC-enriched organoids [1]; Dose 10.00 uM): −2.058; SSMD.LYZ.NS (ISC-enriched organoids [1]; [4]): 0.230; SSMD.LYZ.NS (ISC-enriched organoids [1]; [5]): −0.481; SSMD.LYZ.NS (ISC-enriched organoids [1]; [6]): −1.586; SSMD.LYZ.NS (ISC-enriched organoids [1]; [7]): −1.642; Dose.FC.LYZ.S (ISC-enriched organoids [2]; Dose 0.08 uM, primary screen): 0.071 log 2 fold change; Dose.FC.LYZ.S (ISC-enriched organoids [2]; Dose 0.40 uM, primary screen): 0.083 log 2 fold change; Dose.FC.LYZ.S (ISC-enriched organoids [2]; Dose 2.00 uM, primary screen): −0.239 log 2 fold change; Dose.FC.LYZ.S (ISC-enriched organoids [2]; Dose 10.00 uM, primary screen): −0.367 log 2 fold change; Z.LYZ.S (ISC-enriched organoids [2]; [4]): 0.460; Z.LYZ.S (ISC-enriched organoids [2]; [5]): 0.536; Z.LYZ.S (ISC-enriched organoids [2]; [6]): −1.546; Z.LYZ.S (ISC-enriched organoids [2]; [7]): −2.370; SSMD.LYZ.S (ISC-enriched organoids [2]; [4]): 0.403; SSMD.LYZ.S (ISC-enriched organoids [2]; [5]): 0.232; SSMD.LYZ.S (ISC-enriched organoids [2]; [6]): −1.686; SSMD.LYZ.S (ISC-enriched organoids [2]; [7]): −1.628; Dose.FC.CTG (ISC-enriched organoids [3]; Dose 0.08 uM, primary screen): 0.071 log 2 fold change; Z.CTG (ISC-enriched organoids [3]; Dose 0.08 uM): 0.169; Dose.FC.CTG (ISC-enriched organoids [3]; Dose 0.40 uM, primary screen): −0.023 log 2 fold change; Z.CTG (ISC-enriched organoids [3]; Dose 0.40 uM): −0.055; Dose.FC.CTG (ISC-enriched organoids [3]; Dose 2.00 uM, primary screen): −0.178 log 2 fold change; Z.CTG (ISC-enriched organoids [3]; Dose 2.00 uM): −0.425; Dose.FC.CTG (ISC-enriched organoids [3]; Dose 10.00 uM, primary screen): −0.540 log 2 fold change; Z.CTG (ISC-enriched organoids [3]; Dose 10.00 uM): −1.290; SSMD.CTG (ISC-enriched organoids [3]; [4]): 0.242; SSMD.CTG (ISC-enriched organoids [3]; [5]): −0.074; SSMD.CTG (ISC-enriched organoids [3]; [6]): −0.453; SSMD.CTG (ISC-enriched organoids [3]; [7]): −1.730

With Cc1cn([C@H]2C=C[C@@H](CO)O2)c(=O)[nH]c1=O [Stavudine (d4T)] as the compound, how does the “Z.LYZ.NS (standard z score)” value (ISC-enriched organoids [1]; Dose 0.08 uM, primary screen) read?
The value was 0.620.

And the “Dose.FC.LYZ.NS (log 2 fold change)” value (ISC-enriched organoids [1]; Dose 0.08 uM, primary screen)?
The value was 0.071.

What about the “Z.LYZ.NS (standard z score)” value (ISC-enriched organoids [1]; Dose 0.40 uM, primary screen) of the same compound?
Its value is 0.027.

And the “Dose.FC.LYZ.NS (log 2 fold change)” value (ISC-enriched organoids [1]; Dose 0.40 uM, primary screen)?
Its value is 0.003.

What about the “Z.LYZ.NS (standard z score)” value (ISC-enriched organoids [1]; Dose 2.00 uM, primary screen) of the same compound?
The value was 0.074.

And the “Dose.FC.LYZ.NS (log 2 fold change)” value (ISC-enriched organoids [1]; Dose 2.00 uM, primary screen)?
Its value is 0.009.

What about the “Z.LYZ.NS (standard z score)” value (ISC-enriched organoids [1]; Dose 10.00 uM, primary screen) of the same compound?
The value was −0.828.

And the “Dose.FC.LYZ.NS (log 2 fold change)” value (ISC-enriched organoids [1]; Dose 10.00 uM, primary screen)?
The value was −0.095.

And the “Dose.FC.LYZ.S (log 2 fold change)” value (ISC-enriched organoids [2]; Dose 0.08 uM, primary screen)?
Its value is 0.134.

What about the “Dose.FC.LYZ.S (log 2 fold change)” value (ISC-enriched organoids [2]; Dose 0.40 uM, primary screen) of the same compound?
The value was 0.001.

And the “Dose.FC.LYZ.S (log 2 fold change)” value (ISC-enriched organoids [2]; Dose 2.00 uM, primary screen)?
The value was −0.003.

And the “Dose.FC.LYZ.S (log 2 fold change)” value (ISC-enriched organoids [2]; Dose 10.00 uM, primary screen)?
Its value is −0.120.

And the “Z.CTG (standard z score)” value (ISC-enriched organoids [3]; Dose 0.08 uM, primary screen)?
The value was 0.226.

What about the “Dose.FC.CTG (log 2 fold change)” value (ISC-enriched organoids [3]; Dose 0.08 uM, primary screen) of the same compound?
Its value is 0.095.

And the “Z.CTG (standard z score)” value (ISC-enriched organoids [3]; Dose 0.40 uM, primary screen)?
The value was 0.351.

What about the “Dose.FC.CTG (log 2 fold change)” value (ISC-enriched organoids [3]; Dose 0.40 uM, primary screen) of the same compound?
Its value is 0.147.

And the “Z.CTG (standard z score)” value (ISC-enriched organoids [3]; Dose 2.00 uM, primary screen)?
Its value is 0.179.

And the “Dose.FC.CTG (log 2 fold change)” value (ISC-enriched organoids [3]; Dose 2.00 uM, primary screen)?
The value was 0.075.

What about the “Z.CTG (standard z score)” value (ISC-enriched organoids [3]; Dose 10.00 uM, primary screen) of the same compound?
The value was −0.179.

And the “Dose.FC.CTG (log 2 fold change)” value (ISC-enriched organoids [3]; Dose 10.00 uM, primary screen)?
Its value is −0.075.
